In US7781183B2 (priority 2003, dated 2010):
“Also recorded” adds a separate entry of the source.

Tests used:
[1] = target: anthrax lethal factor protease (Bacillus anthracis, UniProt P15917); experiment: biochemical; assay type: biochemical
[2] = tested on: J774A.1 cells; assay type: cell-based

Sequence of anthrax lethal factor protease (P15917 34-809 limits assumed): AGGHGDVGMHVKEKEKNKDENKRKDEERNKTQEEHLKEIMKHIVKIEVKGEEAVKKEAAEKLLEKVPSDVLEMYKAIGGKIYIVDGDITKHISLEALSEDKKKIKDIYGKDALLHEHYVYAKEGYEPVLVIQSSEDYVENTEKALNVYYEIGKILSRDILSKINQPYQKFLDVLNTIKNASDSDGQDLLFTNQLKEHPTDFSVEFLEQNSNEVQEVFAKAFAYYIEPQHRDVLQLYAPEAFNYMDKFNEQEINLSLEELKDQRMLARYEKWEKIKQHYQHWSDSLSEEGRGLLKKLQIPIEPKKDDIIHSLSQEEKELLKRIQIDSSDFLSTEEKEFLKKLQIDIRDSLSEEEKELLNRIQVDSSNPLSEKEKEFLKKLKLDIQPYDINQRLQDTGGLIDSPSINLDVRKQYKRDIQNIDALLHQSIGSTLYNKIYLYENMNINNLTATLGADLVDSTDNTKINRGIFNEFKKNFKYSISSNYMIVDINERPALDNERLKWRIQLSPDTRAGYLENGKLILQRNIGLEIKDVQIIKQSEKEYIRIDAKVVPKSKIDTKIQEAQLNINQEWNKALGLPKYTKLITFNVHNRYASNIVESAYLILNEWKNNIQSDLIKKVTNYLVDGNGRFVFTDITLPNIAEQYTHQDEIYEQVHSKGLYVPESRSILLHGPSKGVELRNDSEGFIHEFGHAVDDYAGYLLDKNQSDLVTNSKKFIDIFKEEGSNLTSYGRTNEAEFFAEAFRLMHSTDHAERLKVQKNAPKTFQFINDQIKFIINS

C/C(=C\c1ccc(/C=C/c2cc3ccc(C4=NCCN4)cc3[nH]2)[nH]1)C1=NCCN1 [NSC 317880] was tested, and the “Percent Inhibition” value [1] was 93.
For c1cc(-c2[nH]c3cc(C4=NCCN4)ccc3c2-c2cc3ccc(C4=NCCN4)cc3[nH]2)ccc1C1=NCCN1 [NSC 341911], the “Percent Inhibition” value [1] was 64.
For c1cc2cc(-c3ccc4cc(-c5ccc6oc(C7=NCCN7)cc6c5)[nH]c4c3)[nH]c2cc1C1=NCCN1 [NSC 369718], the “protection (in words)” value [2] was “lower protection; also recorded: some protection” and the inhibition at 20 µM [1] was 90%.
N=C(N)c1ccc(/C=C/c2cc3ccc(C(=N)N)cc3[nH]2)cc1 [NSC 317886] was tested, and the “Percent Inhibition” value [1] was 93.
For c1cc(-c2nc3cc(-c4nc5cc(C6=NCCN6)ccc5[nH]4)ccc3[nH]2)ccc1C1=NCCN1 [NSC 369721], the “protection (in words)” value [2] was “ineffective”, the Inhibition type [1] was “competitive inhibition” and the Ki [1] was 4.2 ± 0.21 µM. For the same molecule, the “Km(app) with inhibitor concentration” value [1] was “increased”, the “effect on the Vmax” value [1] was “no effect” and the inhibition at 20 µM [1] was 90%.
In the case of C(=C\c1cc2ccc(C3=NCCN3)cc2o1)/c1cc2cc(C3=NCCN3)ccc2[nH]1 [NSC 294204], the “Percent Inhibition” value [1] is reported as 84.
In the case of C(=C\c1cc2ccc(C3=NCCN3)cc2o1)/c1cc2ccc(C3=NCCN3)cc2o1 [NSC 294494], the “Percent Inhibition” value [1] is reported as 29.
Nc1c(/C=C/c2cc3cc(C4=NCCN4)ccc3o2)[nH]c2cc(C3=NCCN3)ccc12 [NSC 357756] was tested, and the protection [2] was “about 96%”, the “protection (in words)” value [2] was “some protection” and the Inhibition type [1] was “competitive inhibition”. The Ki [1] was 4.9 ± 1.7 µM, the “Km(app) with inhibitor concentration” value [1] was “increased” and the “effect on the Vmax” value [1] was “no effect”. The inhibition at 20 µM [1] was 90%.
With N=C(N)N/N=C/c1ccc(-c2cc3ccc(/C=N/NC(=N)N)cc3s2)cc1 [NSC 341909] the “Percent Inhibition” value [1] was 90.
N=C(N)c1ccc(-c2[nH]c3cc(C(=N)N)ccc3c2N)cc1 [NSC 300509] was tested, and the “Percent Inhibition” value [1] was 46.
With N=C(N)c1ccc2cc(/C=C/c3cc4ccc(C(=N)N)cc4o3)[nH]c2c1 [NSC 294200] the “Percent Inhibition” value [1] was 92.
With N=C(N)c1ccc(/C=C/c2cc3cc(C(=N)N)ccc3[nH]2)cc1 [NSC 317884] the “Percent Inhibition” value [1] was 95.
For CCOc1ccc2c(N)c3ccc(/N=N/c4ccc(N)nc4N)cc3nc2c1 [NSC 354961], the “Percent Inhibition” value [1] was 95.
With N=C(N)c1ccc2[nH]c(/C=C/c3cc4cc(C(=N)N)ccc4o3)cc2c1 [NSC 290107] the “Percent Inhibition” value [1] was 85.
For N=C(N)c1ccc(Oc2ccc(-c3cc4ccc(C(=N)N)cc4[nH]3)cc2)cc1 [NSC 240898], the “Percent Inhibition” value [1] was 72.
With C(=C\c1cc2ccc(C3=NCCN3)cc2o1)/c1cc2cc(C3=NCCN3)ccc2[nH]1 [NSC 294201] the “Percent Inhibition” value [1] was 88.
For O=C(Nc1ccc(C2=NCCN2)cc1)c1cc2ccc(C3=NCCN3)cc2[nH]1 [NSC 294206], the “Percent Inhibition” value [1] was 56.
For c1cc2cc(-c3ccc(-c4cc5ccc(C6=NCCN6)cc5[nH]4)cc3)[nH]c2cc1C1=NCCN1 [NSC 317881], the “Percent Inhibition” value [1] was 97.
In the case of N=C(N)c1ccc2[nH]c(/C=C/c3cc4ccc(C(=N)N)cc4o3)cc2c1 [NSC 294203], the “Percent Inhibition” value [1] is reported as 92.
Nc1ccc(/N=N/c2ccc3cc4ccc(/N=N/c5ccc(N)nc5N)cc4nc3c2)c(N)n1 [NSC 354962] was tested, and the “Percent Inhibition” value [1] was 40.
Work on N=C(N)c1ccc(N=Nc2cc(N=Nc3ccc(C(=N)N)cc3)c(O)cc2O)cc1 [NSC 359465] yielded an inhibition at 20 µM [1] of 48%.
For Cc1cc(N)c2cc(NC(=O)Nc3ccc4nc(C)cc(N)c4c3)ccc2n1 [NSC 12155], the “protection (in words)” value [2] was “lower protection; also recorded: some protection”, the Inhibition type [1] was “competitive inhibition” and the Ki [1] was 0.5 µM. The “Km(app) with inhibitor concentration” value [1] was “increased”, the “effect on the Vmax” value [1] was “no effect” and the inhibition at 20 µM [1] was 95%. For the same molecule, the “inhibition of LF activity (in words)” value [1] was “strong inhibition”.
c1cc(C2=NCCN2)ccc1Nc1ccc(-c2cc3ccc(C4=NCCN4)cc3[nH]2)cc1 [NSC 377362] showed an inhibition at 20 µM [1] of 33%.
